# Results as given in patent publication US20050131029A1, “Immunophilin ligand treatment of antiretroviral toxic neuropathy” (priority 2003, published 2005).
# Experiments:
# [1] = test system: primary DRG sensory neurons; type: cell-based, rat; conditions: for relative neurotoxicity (potency in inhibiting neuritic outgrowth): comparison between NRTIs
# [2] = test system: primary DRG sensory neurons; assay: Neuronal mitochondrial toxicity assay (JC-1 red:green fluorescence in TTC-labeled neurons); conditions: 4 hours; NRTIs 1-100 μM, FCCP 25 μM
# [3] = test system: primary DRG sensory neurons; type: cell-based
# Schwann cells [4] = test system: Schwann cells
# [5] = test system: primary DRG sensory neurons; conditions: rat, 4 h
# Schwann cells [6] = assay: Cell death in Schwann cells of the co-cultures; type: cell-based, rat; conditions: ddC dose of 1 mM (data not shown)
# [7] = NRTI 1-100 μM added at 3 hours, 15 hours of further incubation
compound,measurement,setting,value
"Cc1cn([C@H]2C[C@H](N=[N+]=[N-])[C@@H](CO)O2)c(=O)[nH]c1=O [AZT, zidovudine]",effect on neuritic morphology,[1]; [7],"did not have any appreciable effect on neuritic morphology, even at high doses"
same,relative neurotoxicity (potency in inhibiting neuritic outgrowth),[1],did not exert significant neurotoxicity
N#CC(C#N)=NNc1ccc(OC(F)(F)F)cc1 [FCCP],JC-1 red:green luminosity ratio (mitochondrial membrane potential differential),[2],loss of mitochondrial membrane potential
C=CC[C@@H]1/C=C(\C)C[C@H](C)C[C@H](OC)[C@H]2O[C@@](O)(C(=O)C(=O)N3CCCC[C@H]3C(=O)O[C@H](/C(C)=C/[C@@H]3CC[C@@H](O)[C@H](OC)C3)[C@H](C)[C@@H](O)CC1=O)[C@H](C)C[C@@H]2OC [FK506],concentrations at which prevention of neuronal cell death was most prominent,"[3]; ddC 10 μM, 18 hours",10 to 100 nM
"Nc1ccn([C@H]2CC[C@@H](CO)O2)c(=O)n1 [ddC, 2′,3′-dideoxycytidine]",TUNEL staining of neurons (marker of apoptosis),"[3]; ddC 10 μM, 18 hours (data not shown)",lack of DNA laddering
same,neuronal cell death (percentage of neurons labeling with live-cell marker),"[3]; exposure for 18 hours, varying doses",higher doses of ddC were associated with a lower percentage of neurons labeling with the “live-cell” marker
same,mitochondrial depolarization in Schwann cells,Schwann cells [4],no evidence of mitochondrial depolarization
same,concentration achieving the same level of mitochondrial membrane depolarization as (25 μM) FCCP,[5],1000 nM
same,cell death in Schwann cells,Schwann cells [6],no cell death
same,effect on neuritic morphology,[1]; [7],frank neuritic degeneration was also seen
same,total neuritic length and number of neurites per neuron,[1]; [7],dose-dependent reduction
same,relative neurotoxicity (potency in inhibiting neuritic outgrowth),[1],most neurotoxic
"O=c1[nH]cnc2c1ncn2[C@H]1CC[C@@H](CO)O1 [ddl, didanosine]",concentration achieving the same level of mitochondrial membrane depolarization as (25 μM) FCCP,[5],1000 nM
